From PMC10261145, “Ceramide sensing by human SPT-ORMDL complex for establishing sphingolipid homeostasis” (Nature Communications, 2023)

Experiments:
Type in all cases: biochemical
SPT-ORMDL3 complex [1] = target: T1, SPT-ORMDL3 complex (Homo sapiens, UniProt O15269+O15270+Q8N138, Q8N138:N13A); assay: DTNB CoA-release assay; settings: 10 mM L-serine, 100 μM palmitoyl-CoA, 25 μM PLP, pH 7.5, 37 °C
T1 construct: full-length subunits (ORMDL3-FL) co-expressed in HEK293F; N-terminal Flag tag on a subunit; purified in GDN; dimer of heterotetrameric protomers; with Serine palmitoyltransferase small subunit A

SPT-ORMDL2 complex = target: T2, SPT-ORMDL2 complex (Homo sapiens, UniProt O15269+O15270+Q53FV1); assay: DTNB CoA-release assay
T2 construct: full-length subunits co-expressed in HEK293F; N-terminal Flag tag on a subunit; purified in GDN; with Serine palmitoyltransferase small subunit A

SPT-ORMDL3 complex [2] = target: T3, SPT-ORMDL3 complex (Homo sapiens, UniProt O15269+O15270+Q8N138, O15269:DEL40-41); assay: DTNB CoA-release assay; settings: 10 mM L-serine, 100 μM palmitoyl-CoA, 25 μM PLP, pH 7.5, 37 °C
T3 construct: full-length subunits (ORMDL3-FL) co-expressed in HEK293F; N-terminal Flag tag on a subunit; purified in GDN; dimer of heterotetrameric protomers; with Serine palmitoyltransferase small subunit A

SPT-ORMDL3 complex [3] = target: T4, SPT-ORMDL3 complex (Homo sapiens, UniProt O15269+O15270+Q8N138, O15270:Y122A); assay: DTNB CoA-release assay
T4 construct: full-length subunits (ORMDL3-FL) co-expressed in HEK293F; N-terminal Flag tag on a subunit; purified in GDN; dimer of heterotetrameric protomers; with Serine palmitoyltransferase small subunit A
Excerpt: (§1) DTNB CoA-release assay on SPT-ORMDL3 complex | severely impaired for the former two variants, but largely sustained for the latter two variants

SPT-ORMDL3 complex [4] = target: T5, SPT-ORMDL3 complex (Homo sapiens, UniProt O15269+O15270+Q8N138, Q8N138:H85A); assay: DTNB CoA-release assay
T5 construct: full-length subunits (ORMDL3-FL) co-expressed in HEK293F; N-terminal Flag tag on a subunit; purified in GDN; dimer of heterotetrameric protomers; with Serine palmitoyltransferase small subunit A
Excerpt: as §1

SPT-ORMDL1 complex = target: T6, SPT-ORMDL1 complex (Homo sapiens, UniProt O15269+O15270+Q9P0S3); assay: DTNB CoA-release assay
T6 construct: full-length subunits co-expressed in HEK293F; N-terminal Flag tag on a subunit; purified in GDN; with Serine palmitoyltransferase small subunit A

SPT-ORMDL3 complex [5] = target: T7, SPT-ORMDL3 complex (Homo sapiens, UniProt O15269+O15270+Q8N138); assay: DTNB CoA-release assay; cryo-EM structure
T7 construct: full-length subunits (ORMDL3-FL) co-expressed in HEK293F; N-terminal Flag tag on a subunit; purified in GDN; dimer of heterotetrameric protomers; with Serine palmitoyltransferase small subunit A

SPT-ORMDL3 complex [6] = target: T8, SPT-ORMDL3 complex (Homo sapiens, UniProt O15269+O15270+Q8N138, Q8N138:F63P); assay: DTNB CoA-release assay; settings: 10 mM L-serine, 100 μM palmitoyl-CoA, 25 μM PLP, pH 7.5, 37 °C
T8 construct: full-length subunits (ORMDL3-FL) co-expressed in HEK293F; N-terminal Flag tag on a subunit; purified in GDN; dimer of heterotetrameric protomers; with Serine palmitoyltransferase small subunit A

SPT-ORMDL3 complex [7] = target: T9, SPT-ORMDL3 complex (Homo sapiens, UniProt O15269+O15270+Q8N138, O15269:DEL39-39); assay: DTNB CoA-release assay; settings: 10 mM L-serine, 100 μM palmitoyl-CoA, 25 μM PLP, pH 7.5, 37 °C
T9 construct: full-length subunits (ORMDL3-FL) co-expressed in HEK293F; N-terminal Flag tag on a subunit; purified in GDN; dimer of heterotetrameric protomers; with Serine palmitoyltransferase small subunit A
T9 sequence (Q8N138 whole entry, stated change not applied): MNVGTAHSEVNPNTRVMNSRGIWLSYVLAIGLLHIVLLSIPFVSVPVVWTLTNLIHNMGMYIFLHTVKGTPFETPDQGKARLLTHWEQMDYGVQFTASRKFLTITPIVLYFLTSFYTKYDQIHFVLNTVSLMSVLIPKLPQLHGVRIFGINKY
T9 sequence (O15270 whole entry, stated change not applied): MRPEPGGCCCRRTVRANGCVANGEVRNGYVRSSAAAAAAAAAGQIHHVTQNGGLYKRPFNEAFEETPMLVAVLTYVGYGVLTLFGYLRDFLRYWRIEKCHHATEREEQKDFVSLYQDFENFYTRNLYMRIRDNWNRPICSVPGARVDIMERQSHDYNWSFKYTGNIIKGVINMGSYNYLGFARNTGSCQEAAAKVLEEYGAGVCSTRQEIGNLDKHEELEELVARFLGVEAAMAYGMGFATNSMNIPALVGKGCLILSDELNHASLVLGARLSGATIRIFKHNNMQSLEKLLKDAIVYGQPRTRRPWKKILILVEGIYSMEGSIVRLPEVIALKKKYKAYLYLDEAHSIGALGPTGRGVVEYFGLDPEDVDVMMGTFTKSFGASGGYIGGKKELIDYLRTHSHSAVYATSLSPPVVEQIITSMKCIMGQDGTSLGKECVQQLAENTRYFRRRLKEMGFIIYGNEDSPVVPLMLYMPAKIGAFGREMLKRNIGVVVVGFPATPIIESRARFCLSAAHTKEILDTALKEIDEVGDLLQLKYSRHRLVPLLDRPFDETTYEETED
T9 sequence (O15269 with tags, fused parts or gaps DEL39-39): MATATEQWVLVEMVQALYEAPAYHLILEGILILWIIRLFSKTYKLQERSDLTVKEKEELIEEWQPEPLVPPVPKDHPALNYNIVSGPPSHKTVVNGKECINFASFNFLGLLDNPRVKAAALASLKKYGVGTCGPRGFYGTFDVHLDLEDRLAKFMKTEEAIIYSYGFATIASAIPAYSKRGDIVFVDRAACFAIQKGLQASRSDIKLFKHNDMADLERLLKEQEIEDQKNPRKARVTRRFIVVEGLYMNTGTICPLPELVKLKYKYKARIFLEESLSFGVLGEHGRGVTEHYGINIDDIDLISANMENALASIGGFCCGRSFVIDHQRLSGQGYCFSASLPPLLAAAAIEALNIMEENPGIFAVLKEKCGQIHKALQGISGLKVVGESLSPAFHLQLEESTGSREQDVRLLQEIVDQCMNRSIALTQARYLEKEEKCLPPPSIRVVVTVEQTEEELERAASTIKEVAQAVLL
T9 sequence (Q969W0 whole entry partner): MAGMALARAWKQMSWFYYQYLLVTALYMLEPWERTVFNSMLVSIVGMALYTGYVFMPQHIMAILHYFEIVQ

T3 sequence (Q8N138 whole entry, stated change not applied): as the sequence (Q8N138 whole entry, stated change not applied) above
T3 sequence (O15270 whole entry, stated change not applied): as the sequence (O15270 whole entry, stated change not applied) above
T3 sequence (O15269 with tags, fused parts or gaps DEL40-41): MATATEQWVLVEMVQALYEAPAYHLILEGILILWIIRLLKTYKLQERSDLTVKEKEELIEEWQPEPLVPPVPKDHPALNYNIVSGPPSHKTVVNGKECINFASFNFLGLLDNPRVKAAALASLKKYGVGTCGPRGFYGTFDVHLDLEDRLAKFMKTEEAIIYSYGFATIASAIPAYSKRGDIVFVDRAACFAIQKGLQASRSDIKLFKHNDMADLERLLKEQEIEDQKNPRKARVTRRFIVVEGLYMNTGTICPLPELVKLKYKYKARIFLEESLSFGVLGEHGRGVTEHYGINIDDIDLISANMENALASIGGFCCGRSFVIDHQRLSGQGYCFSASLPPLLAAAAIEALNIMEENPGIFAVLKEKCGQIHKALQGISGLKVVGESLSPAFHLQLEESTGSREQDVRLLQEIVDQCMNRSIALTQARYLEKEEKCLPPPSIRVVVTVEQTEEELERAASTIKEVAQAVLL
T3 sequence (Q969W0 whole entry partner): as the sequence (Q969W0 whole entry partner) above
T7 sequence (Q8N138 whole entry): as the sequence (Q8N138 whole entry, stated change not applied) above
T7 sequence (O15270 whole entry): as the sequence (O15270 whole entry, stated change not applied) above
T7 sequence (O15269 whole entry): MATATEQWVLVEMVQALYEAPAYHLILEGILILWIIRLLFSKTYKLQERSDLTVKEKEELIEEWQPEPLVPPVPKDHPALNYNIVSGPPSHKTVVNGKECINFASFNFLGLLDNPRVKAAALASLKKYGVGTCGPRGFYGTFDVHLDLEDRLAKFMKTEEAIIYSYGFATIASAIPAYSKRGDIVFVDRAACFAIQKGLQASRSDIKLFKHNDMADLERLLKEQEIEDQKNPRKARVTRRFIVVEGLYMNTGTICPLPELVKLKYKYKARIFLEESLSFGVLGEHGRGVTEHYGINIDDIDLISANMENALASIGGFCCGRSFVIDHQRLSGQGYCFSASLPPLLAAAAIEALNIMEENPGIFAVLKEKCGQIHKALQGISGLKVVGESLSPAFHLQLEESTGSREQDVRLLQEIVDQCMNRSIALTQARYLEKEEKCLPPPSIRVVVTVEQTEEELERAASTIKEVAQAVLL
T7 sequence (Q969W0 whole entry partner): as the sequence (Q969W0 whole entry partner) above
T4 sequence (Q8N138 whole entry): as the sequence (Q8N138 whole entry, stated change not applied) above
T4 sequence (O15270 whole entry Y122A): as the sequence (O15270 whole entry, stated change not applied) above, with Y122A counted along it
T4 sequence (O15269 whole entry): as the sequence (O15269 whole entry) above
T4 sequence (Q969W0 whole entry partner): as the sequence (Q969W0 whole entry partner) above
T8 sequence (Q8N138 whole entry F63P): as the sequence (Q8N138 whole entry, stated change not applied) above, with F63P counted along it
T8 sequence (O15270 whole entry): as the sequence (O15270 whole entry, stated change not applied) above
T8 sequence (O15269 whole entry): as the sequence (O15269 whole entry) above
T8 sequence (Q969W0 whole entry partner): as the sequence (Q969W0 whole entry partner) above
T5 sequence (Q8N138 whole entry H85A): as the sequence (Q8N138 whole entry, stated change not applied) above, with H85A counted along it
T5 sequence (O15270 whole entry): as the sequence (O15270 whole entry, stated change not applied) above
T5 sequence (O15269 whole entry): as the sequence (O15269 whole entry) above
T5 sequence (Q969W0 whole entry partner): as the sequence (Q969W0 whole entry partner) above
T1 sequence (Q8N138 whole entry N13A): as the sequence (Q8N138 whole entry, stated change not applied) above, with N13A counted along it
T1 sequence (O15270 whole entry): as the sequence (O15270 whole entry, stated change not applied) above
T1 sequence (O15269 whole entry): as the sequence (O15269 whole entry) above
T1 sequence (Q969W0 whole entry partner): as the sequence (Q969W0 whole entry partner) above
T2 sequence (Q53FV1 whole entry): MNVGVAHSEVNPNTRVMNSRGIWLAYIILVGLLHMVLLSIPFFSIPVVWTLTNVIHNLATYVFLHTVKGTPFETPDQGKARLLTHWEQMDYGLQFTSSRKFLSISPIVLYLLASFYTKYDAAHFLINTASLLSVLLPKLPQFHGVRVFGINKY
T2 sequence (O15270 whole entry): as the sequence (O15270 whole entry, stated change not applied) above
T2 sequence (O15269 whole entry): as the sequence (O15269 whole entry) above
T2 sequence (Q969W0 whole entry partner): as the sequence (Q969W0 whole entry partner) above
T6 sequence (Q9P0S3 whole entry): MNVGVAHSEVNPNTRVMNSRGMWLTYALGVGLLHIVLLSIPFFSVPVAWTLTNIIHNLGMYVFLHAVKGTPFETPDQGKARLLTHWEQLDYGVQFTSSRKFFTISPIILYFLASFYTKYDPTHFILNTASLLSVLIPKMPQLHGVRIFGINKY
T6 sequence (O15270 whole entry): as the sequence (O15270 whole entry, stated change not applied) above
T6 sequence (O15269 whole entry): as the sequence (O15269 whole entry) above
T6 sequence (Q969W0 whole entry partner): as the sequence (Q969W0 whole entry partner) above

IC50 (SPT-ORMDL2 complex): 980 nM | IC50 (SPT-ORMDL3 complex [3]): 6980 nM | IC50 (SPT-ORMDL3 complex [4]): 964 nM | IC50 (SPT-ORMDL1 complex): 4070 nM | IC50 (SPT-ORMDL3 complex [5]): 2200 nM
Structure (SMILES): CCCCCCCCCCCCC/C=C/[C@@H](O)[C@H](CO)NC(=O)CCCCC [C6-ceramide]
inhibition curve (SPT-ORMDL3 complex [1]): responses to C6-ceramide have been severely impaired for the former two variants | inhibition curve (SPT-ORMDL3 complex [2]): inhibition effect of C6-ceramide on all these SPTLC1 ALS variants was attenuated | inhibition curve (SPT-ORMDL3 complex [6]): responses to C6-ceramide have been severely impaired for the former two variants | inhibition curve (SPT-ORMDL3 complex [7]): inhibition effect of C6-ceramide on all these SPTLC1 ALS variants was attenuated
